Structures can show the parent of a compound that is named as a salt. Where two headings read alike, the source gives them in different places.
Key:
[1] = target: T1, cloned human NK3 receptors (Homo sapiens, UniProt P29371); assay: Binding of [125I]His[MePhe7]NKB to cloned human NK3 receptors expressed by CHO cells; settings: read-out: inhibition constant Ki, binding of [125I]His[MePhe7]NKB to cloned human NK3 receptors
T1 construct: expressed in transfected cells; host or cells: CHO cells
T1 sequence (P29371 1-465): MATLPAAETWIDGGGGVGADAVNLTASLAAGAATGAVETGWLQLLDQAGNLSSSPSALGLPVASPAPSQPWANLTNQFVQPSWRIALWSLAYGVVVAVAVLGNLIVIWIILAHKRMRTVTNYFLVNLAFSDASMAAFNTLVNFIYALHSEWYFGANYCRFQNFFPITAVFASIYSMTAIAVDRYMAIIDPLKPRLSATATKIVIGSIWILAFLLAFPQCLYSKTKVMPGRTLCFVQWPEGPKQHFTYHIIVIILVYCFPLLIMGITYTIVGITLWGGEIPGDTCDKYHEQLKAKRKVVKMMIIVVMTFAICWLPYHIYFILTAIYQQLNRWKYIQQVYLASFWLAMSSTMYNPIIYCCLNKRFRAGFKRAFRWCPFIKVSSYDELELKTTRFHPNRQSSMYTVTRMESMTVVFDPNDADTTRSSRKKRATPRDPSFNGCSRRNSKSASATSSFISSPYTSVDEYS
Procedure: The affinity of the compounds for tachykinin receptors was evaluated in vitro by several biochemical tests using radioligands: 3) The binding of [^125I]His[[…]]NKB to the cloned human NK3 receptors expressed by CHO cells (Buell et al., FEBS Letters, 1992, 299, 90-95). The tests were carried out according to X. Emonds-Alt et al. (Eur. J. Pharmacol., 1993, 250, 403-413; Life Sci., 1995, 56, PL 27-32).

[2] = target: T2, NK3 receptors (Cavia porcellus, UniProt P30098); assay: Haloperidol-induced increase in number of spontaneously active dopaminergic neurons in A10 region of guinea pigs; type: in vivo, guinea pig; settings: haloperidol 1 mg/kg i.p., compound 0.1-1 mg/kg by the intraperitoneal route
T2 construct: from tissue; host or cells: guinea pig brain (septum/hippocampus; A10/VTA), living animal
T2 sequence (P30098 1-440): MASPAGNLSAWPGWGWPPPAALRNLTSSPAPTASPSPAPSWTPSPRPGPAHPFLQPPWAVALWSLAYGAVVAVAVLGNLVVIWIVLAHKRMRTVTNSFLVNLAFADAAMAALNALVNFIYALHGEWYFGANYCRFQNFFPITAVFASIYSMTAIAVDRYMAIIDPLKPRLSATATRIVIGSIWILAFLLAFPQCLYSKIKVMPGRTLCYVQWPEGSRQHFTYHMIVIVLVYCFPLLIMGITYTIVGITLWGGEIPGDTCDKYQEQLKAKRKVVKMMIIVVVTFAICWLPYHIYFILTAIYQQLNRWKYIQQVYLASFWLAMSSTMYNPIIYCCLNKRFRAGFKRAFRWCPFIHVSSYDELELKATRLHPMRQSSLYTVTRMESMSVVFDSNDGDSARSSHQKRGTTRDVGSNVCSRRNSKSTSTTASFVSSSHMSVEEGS
Text: This increase is mediated by the activation of the NK3 receptors by endogenous neurokinin B (C. Gueudet et al., Synapse, 1999, 33, 71-79).

[3] = target: T3, cloned human NK2 receptors (Homo sapiens, UniProt P21452); assay: Binding of [125I]His-NKA to cloned human NK2 receptors expressed by CHO cells; settings: read-out: inhibition constant Ki, binding of [125I]His-NKA to cloned human NK2 receptors
T3 construct: expressed in transfected cells; host or cells: CHO cells
T3 sequence (P21452 1-398): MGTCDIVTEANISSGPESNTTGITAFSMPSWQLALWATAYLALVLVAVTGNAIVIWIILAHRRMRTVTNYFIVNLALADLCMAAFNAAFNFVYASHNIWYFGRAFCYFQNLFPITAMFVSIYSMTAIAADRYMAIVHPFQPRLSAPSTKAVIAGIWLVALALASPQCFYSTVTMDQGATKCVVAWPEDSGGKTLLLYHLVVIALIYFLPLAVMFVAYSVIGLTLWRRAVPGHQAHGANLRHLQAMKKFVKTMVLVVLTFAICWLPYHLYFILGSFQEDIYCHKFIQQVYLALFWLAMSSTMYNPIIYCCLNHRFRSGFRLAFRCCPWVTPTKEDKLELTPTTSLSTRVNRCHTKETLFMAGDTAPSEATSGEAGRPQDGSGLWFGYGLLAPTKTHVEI
Procedure: The affinity of the compounds for tachykinin receptors was evaluated in vitro by several biochemical tests using radioligands: 2) The binding of [^125I]|His-NKA to the cloned human NK2 receptors expressed by CHO cells (Y. Takeda et al., J. Neurochem., 1992, 59, 740-745). The tests were carried out according to X. Emonds-Alt et al. (Eur. J. Pharmacol., 1993, 250, 403-413; Life Sci., 1995, 56, PL 27-32). […] The inhibition constant Ki is less than or equal to 5×10^−10M.

[4] = target: T4, NK2 receptors (Rattus norvegicus, UniProt P16610); assay: Increase in hippocampal acetylcholine release caused by NK2 agonist applied in the septum of rats; type: in vivo; settings: 0.1-0.3 mg/kg by the intraperitoneal route
T4 construct: from tissue; host or cells: rat brain (septum/hippocampus; prefrontal cortex), living animal
T4 sequence (P16610 1-390): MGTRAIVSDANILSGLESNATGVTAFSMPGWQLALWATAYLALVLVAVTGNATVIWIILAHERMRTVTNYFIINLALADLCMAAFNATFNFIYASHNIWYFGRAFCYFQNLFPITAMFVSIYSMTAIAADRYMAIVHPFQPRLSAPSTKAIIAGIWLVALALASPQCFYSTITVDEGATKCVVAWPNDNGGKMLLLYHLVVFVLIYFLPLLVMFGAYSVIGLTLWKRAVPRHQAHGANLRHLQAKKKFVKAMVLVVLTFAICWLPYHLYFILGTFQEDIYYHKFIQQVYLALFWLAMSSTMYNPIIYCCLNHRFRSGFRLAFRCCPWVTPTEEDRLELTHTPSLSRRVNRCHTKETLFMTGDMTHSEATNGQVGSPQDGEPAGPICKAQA
Text: (§1) In rats, the application of an agonist of the NK2 receptors in the septum causes an increase in the release of acetylcholine in the hippocampus (test carried out according to R. Steinberg et al., Eur. J. Neurosci., 1998, 10, 2337-2345). Likewise in guinea pigs, the local application of an agonist of the NK3 receptors in the septum causes an increase in the release of acetylcholine in the hippocampus (test carried out according to N. Marco et al., Neuropeptides, 1998, 32, 481-488).

[5] = target: T4, NK2 receptors; assay: Constraint stress-induced increase in tissue level of DOPAC in prefrontal cortex of rats; type: in vivo; settings: 1 mg/kg by the intraperitoneal route
Text: In rats, constraint stress causes an increase in the tissue level of DOPAC (3,4-dihydroxyphenyl acetic acid) in the prefrontal cortex (test carried out according to B. A. Morrow et al., Eur. J. Pharmacol., 1993, 238, 255-262).

[6] = system: NK3 receptor; assay: Rotating behaviour induced by intrastriatal senktide in gerbils; type: in vivo, gerbil
Procedure: This test was carried out according to X. Emonds-Alt et al., Life Sci., 1995, 56, PL27-PL32.

[7] = system: NK2 receptor; assay: Rotating behaviour induced by intrastriatal [Nle10]NKA(4-10) in gerbils; type: in vivo, gerbil; settings: [Nle10]NKA(4-10) intrastriatal
Procedure: In gerbils, a rotating behaviour is induced by intrastriatal administration of a specific agonist of the NK2 receptor, [Nle^10]NKA(4-10); it was observed that a unilateral application of [Nle^10]NKA(4-10) into the gerbil striatum leads to strong contralateral rotations which are inhibited by the compounds according to the invention administered either by the intraperitoneal route, or by the oral route. This test was carried out according to M. Poncelet et al., Neurosci, Lett., 1993, 149, 40-42. In this test, the compounds according to the invention are active at doses ranging from 0.1 mg to 30 mg per kg.

[8] = target: T2, NK3 receptors; assay: Increase in hippocampal acetylcholine release caused by NK3 agonist applied in the septum of guinea pigs; type: in vivo, guinea pig; settings: 0.3-1 mg/kg by the intraperitoneal route
Text: as §1

[9] = target: T4, NK2 receptors; settings: rats, literature reference; cited from earlier work

Ki [1] [nM]	effect on haloperidol-induced increase in number of spontaneously active dopaminergic neurons (A10 region) [2]	Ki [3] [nM]	effect on increase in release of acetylcholine in the hippocampus caused by an NK2 agonist [4]	effect on constraint stress-induced increase in DOPAC tissue level in prefrontal cortex [5]	effect on increase in release of acetylcholine in the hippocampus caused by an NK3 agonist [8]	SMILES	ED50, inhibition of contralateral rotations ([6]; intraperitoneal route) [mg per kg]	ED50, inhibition of contralateral rotations ([6]; oral route) [mg per kg]	effective dose 50 (ED50), inhibition of contralateral rotations ([7]; intraperitoneal route) [mg per kg]	effective dose 50 (ED50), inhibition of contralateral rotations ([7]; oral route) [mg per kg]	effect on constraint stress-induced increase in DOPAC tissue level in prefrontal cortex [9]
0.04	blocks	0.04	blocks	completely blocks	blocks	CN(C)C(=O)C1(N2CCCCC2)CCN(CCC2(c3ccc(Cl)c(Cl)c3)CN(C(=O)c3ccccc3)CCO2)CC1 (single isomer, unassigned) [Example 1, N,N-Dimethyl-1-[2-[4-benzoyl-2-(3,4-dichloro-phenyl)morpholin-2-yl]ethyl]-4-(piperidin-1-yl)-piperidine-4-carboxamide dihydrochloride, dextrorotatory isomer]	2.8	4.3	2.9	6.5	
						CC(=O)NC1(c2ccccc2)CCN(CC[C@H](CN(C)C(=O)c2ccccc2)c2ccc(Cl)c(Cl)c2)CC1 [saredutant]					blocked
2		0.04				NC(=O)C1(N2CCCCC2)CCN(CCC2(c3ccc(Cl)c(Cl)c3)CN(C(=O)c3ccccc3)CCO2)CC1 (stereo not drawn) [compound α, 1-[2-[4-benzoyl-2-(3,4-dichlorophenyl)morpholin-2-yl]ethyl]-4-(piperidin-1-yl)piperidine-4-carboxamide, reference compound]					

From patent US20080261976A1, “NOVEL PIPERIDINECARBOXAMIDE DERIVATIVES, METHOD FOR PREPARING SAME AND PHARMACEUTICAL COMPOSITIONS CONTAINING SAME” (SANOFI-AVENTIS, priority 2001, published 2008)
